Measured values as given in patent US20230146455A1, “TREATMENT OF INFLAMMATORY DISEASES WITH PEPTIDES AND PHARMACEUTICAL COMPOSITIONS” (Yuyu Pharma, Inc., priority 2020, published 2023).
Values joined by “and” are separate entries in the source; they are usually repeats but may differ in a detail not shown here. Equal entries are not always repeated. Where a SMILES comes first, the peptide text is derived from it. [ ]: non-standard residue; d: D form. Hyp = O=C(O)[C@@H]1C[C@@H](O)CN1

Test system: Fas Ligand
Experiment: Example 9 Luminex, LPS hPBMCs: Fas Ligand
Type: cell-based, human
Conditions: for Fas Ligand Concentration / Fas Ligand conc/live cell / MFI, bead Fas Ligand: single replicates
Experimental: Treatment Human PBMCs were pretreated with YY-101, YDE-011 and YDE-043 or reference compound; Xiidra® at various concentration (ranging from 1 nM to 100 uM) for 2 h before stimulation. An equal volume of 0.5% DMSO was used as a vehicle control. Then, the cells were treated with LPS at 5 ug/ml. The supernatants from treated cells were harvested at 24 h and placed in a 96 well for Luminex cytokine & chemokine profiling using a Luminex 200 multiplex assay (Luminex; R&D system, USA).
The main study arm with triplicate wells per group in a 24-well plate: • 1. Blank • 2. PBMC: 0.5% DMSO • 3. PBMC+LPS (5 ug/ml) • 4. PBMC+YY-101 100 uM • 5. PBMC+YY-101 10 uM • 6. PBMC+YY-101 1 uM • 7. PBMC+YY-101 0.1 uM • 8. PBMC+YY-101 0.01 uM • 9. PBMC+LPS (5 ug/ml)+Xiidra®100 uM • 10. PBMC+LPS (5 ug/ml)+Xiidra® 10 uM • 11. PBMC+LPS (5 ug/ml)+Xiidra® 1 uM • 12. PBMC+LPS (5 ug/ml)+Xiidra®0.1 uM • 13. PBMC+LPS (5 ug/ml)+Xiidra®0.01 uM • 14. PBMC+LPS (5 ug/ml)+Xiidra®0.001 uM • 15. PBMC+LPS (5 ug/ml)+YY-101 100 uM • 16. PBMC+LPS (5 ug/ml)+YY-101 10 uM • 17. PBMC+LPS (5 ug/ml)+YY-101 1 uM • 18. PBMC+LPS (5 ug/ml)+YY-101 0.1 uM • 19. PBMC+LPS (5 ug/ml)+YY-101 0.01 uM • 20. PBMC+LPS (5 ug/ml)+YY-101 0.001 uM • 21. PBMC+LPS (5 ug/ml)+YDE-011 100 uM • 22. PBMC+LPS (5 ug/ml)+YDE-011 10 uM • 23. PBMC+LPS (5 ug/ml)+YDE-011 1 uM • 24. PBMC+LPS (5 ug/ml)+YDE-011 0.1 uM • 25. PBMC+LPS (5 ug/ml)+YDE-011 0.01 uM • 26. PBMC+LPS (5 ug/ml)+YDE-011 0.001 uM • 27. PBMC+LPS (5 ug/ml)+YDE-043 100 uM • 28. PBMC+LPS (5 ug/ml)+YDE-043 10 uM • 29. PBMC+LPS (5 ug/ml)+YDE-043 1 uM • 30. PBMC+LPS (5 ug/ml)+YDE-043 0.1 uM • 31. PBMC+LPS (5 ug/ml)+YDE-043 0.01 uM • 32. PBMC+LPS (5 ug/ml)+YDE-043 0.001 uM
Multiplex assay was used to measure 30 cytokines and chemokines. The 1:2, 1:10 and 1:200 diluted cell supernatant and serial dilution of the standard were dispensed into a 96 well plate at 50 ul/well. Then, the pre-mixed cocktail of antibody-coated magnetic beads was dispensed at 50 ul/well and incubated at room temperature for 2 h in a horizontal orbital microplate shaker at 800±500 rpm. The beads were washed using a magnetic device to prevent loss. The biotin-antibody was dispensed in 50 ul of each well and incubated at room temperature for 1 h in a shaker at 800±500 rpm. After washing, streptavidin-PE was added at 50 ul/well and incubated at room temperature for 30 min in a shaker under the same conditions. Finally, after washing, wash buffer (100 ul/well) was added to the plate and incubated in a shaker for 2 min. The Luminex™ 200 setting were set according to the manufacturer's protocol. The data was calculated with a standard five-parameter logistic nonlinear regression analysis of the data (xPonent software 4.2, USA). The levels of cytokine/chemokine are normalized to the live cell counts (1×10^5 cells/mL) and presented as concentrations per mL (pg/mL or ng/mL).

[1] = PBMC + LPS(5 ug/ml) + test article 0.001 uM
[2] = PBMC + LPS(5 ug/ml) + test article 0.01 uM
[3] = PBMC + LPS(5 ug/ml) + test article 0.1 uM
[4] = PBMC + LPS(5 ug/ml) + test article 1 uM
[5] = PBMC + LPS(5 ug/ml) + test article 10 uM
[6] = PBMC + LPS(5 ug/ml) + test article 100 uM
[7] = PBMC + test article 0.01 uM, no LPS
[8] = PBMC + test article 0.1 uM, no LPS
[9] = PBMC + test article 1 uM, no LPS
[10] = PBMC + test article 10 uM, no LPS
[11] = PBMC + test article 100 uM, no LPS

CC(C)C[C@H](NC(=O)CNC(=O)[C@H](CC(=O)O)NC(=O)[C@H](CCC(N)=O)NC(=O)CNC(=O)[C@@H]1C[C@@H](O)CN1)C(=O)N[C@@H](C)C(=O)NCC(=O)N1CCC[C@H]1C(=O)N[C@@H](CCCCN)C(=O)O [YY-101] (H-[Hyp]GQDGLAGPK-OH; N-terminus and C-terminus assumed)
Fas Ligand Concentration, Mean [1]: 30.9 pg/mL
Fas Ligand conc/live cell, Mean [1]: 4.9 pg/10^5
MFI, bead Fas Ligand, Mean [1]: 43.3
Fas Ligand Concentration [1]: 35.8 pg/mL and 32.7 pg/mL and 24.1 pg/mL
Fas Ligand conc/live cell [1]: 6.3 pg/10^5 and 4.6 pg/10^5 and 3.7 pg/10^5
MFI, bead Fas Ligand [1]: 50.5 and 46.0 and 33.5
Fas Ligand Concentration, Mean [2]: 33.8 pg/mL
Fas Ligand conc/live cell, Mean [2]: 5.5 pg/10^5
MFI, bead Fas Ligand, Mean [2]: 47.5
Fas Ligand Concentration [2]: 30.7 pg/mL and 39.3 pg/mL and 31.3 pg/mL
Fas Ligand conc/live cell [2]: 4.8 pg/10^5 and 6.6 pg/10^5 and 5.1 pg/10^5
MFI, bead Fas Ligand [2]: 43.0 and 55.5 and 44.0
Fas Ligand Concentration, Mean [3]: 29.5 pg/mL
Fas Ligand conc/live cell, Mean [3]: 5.1 pg/10^5
MFI, bead Fas Ligand, Mean [3]: 41.3
Fas Ligand Concentration [3]: 32.7 pg/mL and 30.7 pg/mL and 25.2 pg/mL
Fas Ligand conc/live cell [3]: 5.3 pg/10^5 and 5.9 pg/10^5 and 4.1 pg/10^5
MFI, bead Fas Ligand [3]: 46.0 and 43.0 and 35.0
Fas Ligand Concentration, Mean [4]: 34.5 pg/mL
Fas Ligand conc/live cell, Mean [4]: 5.3 pg/10^5
MFI, bead Fas Ligand, Mean [4]: 48.5
Fas Ligand Concentration [4]: 35.5 pg/mL and 36.2 pg/mL and 31.7 pg/mL
Fas Ligand conc/live cell [4]: 5.6 pg/10^5 and 5.1 pg/10^5 (2×)
MFI, bead Fas Ligand [4]: 50.0 and 51.0 and 44.5
Fas Ligand Concentration, Mean [5]: 46.7 pg/mL
Fas Ligand conc/live cell, Mean [5]: 7.3 pg/10^5
MFI, bead Fas Ligand, Mean [5]: 66.0
Fas Ligand Concentration [5]: 58.0 pg/mL and 53.7 pg/mL and 28.6 pg/mL
Fas Ligand conc/live cell [5]: 9.7 pg/10^5 and 8.4 pg/10^5 and 3.8 pg/10^5
MFI, bead Fas Ligand [5]: 82.0 and 76.0 and 40.0
Fas Ligand Concentration, Mean [6]: 25.4 pg/mL
Fas Ligand conc/live cell, Mean [6]: 4.3 pg/10^5
MFI, bead Fas Ligand, Mean [6]: 35.2
Fas Ligand Concentration [6]: 39.0 pg/mL and 16.0 pg/mL and 21.1 pg/mL
Fas Ligand conc/live cell [6]: 6.2 pg/10^5 and 2.6 pg/10^5 and 4.2 pg/10^5
MFI, bead Fas Ligand [6]: 55.0 and 21.5 and 29.0
Fas Ligand Concentration, Mean [7]: 7.7 pg/mL
Fas Ligand conc/live cell, Mean [7]: 1.5 pg/10^5
MFI, bead Fas Ligand, Mean [7]: 8.8
Fas Ligand Concentration [7]: 6.5 pg/mL and 8.8 pg/mL
Fas Ligand conc/live cell [7]: 1.3 pg/10^5 and 1.8 pg/10^5
MFI, bead Fas Ligand [7]: 7.0 and 10.5
Fas Ligand Concentration, Mean [8]: 7.2 pg/mL
Fas Ligand conc/live cell, Mean [8]: 1.4 pg/10^5
MFI, bead Fas Ligand, Mean [8]: 8.0
Fas Ligand Concentration [8]: 6.5 pg/mL and 7.8 pg/mL
Fas Ligand conc/live cell [8]: 1.5 pg/10^5 and 1.3 pg/10^5
MFI, bead Fas Ligand [8]: 7.0 and 9.0
Fas Ligand Concentration, Mean [9]: 7.5 pg/mL
Fas Ligand conc/live cell, Mean [9]: 1.4 pg/10^5
MFI, bead Fas Ligand, Mean [9]: 8.5
Fas Ligand Concentration [9]: 6.5 pg/mL and 8.5 pg/mL
Fas Ligand conc/live cell [9]: 1.2 pg/10^5 and 1.5 pg/10^5
MFI, bead Fas Ligand [9]: 7.0 and 10.0
Fas Ligand Concentration, Mean [10]: 13.2 pg/mL
Fas Ligand conc/live cell, Mean [10]: 2.1 pg/10^5
MFI, bead Fas Ligand, Mean [10]: 17.3
Fas Ligand Concentration [10]: 14.0 pg/mL and 12.4 pg/mL
Fas Ligand conc/live cell [10]: 2.2 pg/10^5 and 2.0 pg/10^5
MFI, bead Fas Ligand [10]: 18.5 and 16.0
Fas Ligand Concentration, Mean [11]: 6.9 pg/mL
Fas Ligand conc/live cell, Mean [11]: 1.0 pg/10^5
MFI, bead Fas Ligand, Mean [11]: 7.5
Fas Ligand Concentration [11]: 7.8 pg/mL and 5.9 pg/mL
Fas Ligand conc/live cell [11]: 1.2 pg/10^5 and 0.8 pg/10^5
MFI, bead Fas Ligand [11]: 9.0 and 6.0
